The values that follow are results of earlier work, collected in patent US20100086495A1, “COMPOSITIONS AND METHODS FOR ENHANCING TRANSMUCOSAL DELIVERY” (DERMA-YOUNG LTD., priority 2007, published 2010).

The conditions of the data set: vitamin B12 deficient subjects.

Consider vitamin B12, for which the “increase in serum concentration levels of the vitamin, sublingual versus conventional oral vitamin B12” value was “same extent of increase”.
